The test system of assay [1] is A549 human lung adenocarcinoma. Description: Colony formation assay, A549. Type of assay: cell-based. The following applies: for IC50: read-out: Inhibition against tumor cell colony formation IC50. The method, then:
(§1) 1) Cell lines: Cell lines of SGC-7901 human gastric cancer, A549 human lung adenocarcinoma and Hela human cervical carcinoma were purchased from the Type Culture Collection of the Chinese Academy of Sciences, Shanghai, China.
(§2) 3) Method: Colony formation assay was used. The cells were trypsinized to generate a single-cell suspension and seeded in a 6-well plate at a density of 100 cells/well, then drug-containing medium was added to the well to make the final concentration of compound to 0, 1.25, 2.50, 5.00, 7.50, 10.00 μmol/L, respectively. The experiments were performed in duplicate, and the cells were cultured at 37 in a humidified atmosphere with 5% CO2. Terminate cell culture when the clones can be seen in the culture plate, then remove the culture medium, and wash twice with PBS, fix the cells with methanol (5 ml/well) for 15 min and stain the cells with hematoxylin-eosin stain. The number of clones which comprised more than 50 cells was counted under a TS100-F-PH microscope (Nikon Company, Japan). Calculate relative colony formation ratio (%) and the IC50 values. Relative colony formation ratio (%)=(colony number of drug-administration well/colony number of control well)×100%.

Assay [2] has as its system Hela human cervical carcinoma. Description: Colony formation assay, Hela. Type of assay: cell-based. The note with it: for IC50: read-out: Inhibition against tumor cell colony formation IC50. The method, then:
as §1, §2

The subject of assay [3] is A549 human lung carcinoma cells. As to the kind of experiment: Wound healing (two-dimensional migration) assay, A549. The following applies: A549, 10.00 μmol/l, 36 h (FIG. 1E). Format: cell-based. Here is the method: (§3) 1) Cell lines: Cell lines of 5637 human bladder carcinoma, Eca-109 human esophageal carcinoma, HT29 human colon cancer, SGC-7901 human gastric cancer, A549 human lung adenocarcinoma and PC-3 human prostate carcinoma were purchased from the Type Culture Collection of the Chinese Academy of Sciences, Shanghai, China.
(§4) 3) Methods: The cells were trypsinized to generate a single-cell suspension and seeded in 96-well plates (200 μl/well), and incubated with medium containing 10% fetal bovine serum at 37 in a humidified atmosphere with 5% CO2. Following a 24 h incubation, the cells were starved for an additional 12 h in low-serum media (1% FBS). The cultures of Eca-109, HT29, 5637, SGC-7901, A549 and PC-3 were then scratched away with a 200-μl plastic pipette tip and rinsed twice with PBS to remove wound-derived loose and dislodged cells. The cells were cultured in replaced medium without or with compounds at final concentrations of 0, 2.50, 5.00 and 10.00 μmol/L, respectively. At least seven randomly selected views along the scraped line in each well were photographed immediately and 24 h and 36 h after incubation using a digital camera at 50× magnification. The average scraped area in each well under each treatment condition was measured, and the percentage of inhibition against cell migration was calculated. % of inhibition=1−(A0−At)/(A′0−A′t)×100%, where, A0 and At are the areas of wound with compound treatment measured immediately and 24 or 36 h post-injury, respectively; A′0 and A′t are the areas of wound without compound treatment measured immediately and 24 or 36 h post-injury, respectively.

Assay [4] concerns Eca-109 human esophageal carcinoma cells. Description: Wound healing (two-dimensional migration) assay, Eca-109. Format: cell-based. The following applies: Eca-109, 10.00 μmol/l, 24 h (FIG. 1A). Here is the method: as §3, §4
Assay [5] deals with SGC-7901 human gastric cancer. Description: Colony formation assay, SGC-7901. Type of assay: cell-based. The note with it: for IC50: read-out: Inhibition against tumor cell colony formation IC50. Here is the method:
as §1, §2

A further assay deals with S180 murine sarcoma. As to the kind of experiment: Growth, invasion and metastasis of S180 sarcoma in tumor-bearing mice. Format: in vivo, mouse. Here is the method: 1) Animals: Be the same with that of EXAMPLE 4.
2) Cells: The S180 murine sarcoma cells were obtained from Henan Academy of Medical and Pharmaceutical Sciences (Zhengzhou, China).
4) Method: Mice were randomly divided into 10 groups (n=12). The S180 cells after in vivo passage for 7 d were diluted with physiological saline to adjust to a concentration of 1×10^7/mL. The inoculation of tumor cells was conducted in two batches, those of tumor control group I and groups treated with compounds 1 or 3 were in batch 1, those of tumor control group II, Cyc group and the compound 2 groups were in batch 2. The mice were injected with S180 cells (0.2 ml/mouse) into the armpit of right forelimb subcutaneously, and 24 h later each group of mice was administrated intragastrically (ig; 0.2 ml/10 g) once a day continuously for 9 d with vehicle (tumor control group), Cyc (standard control), or compounds at the tested doses. On day 10, kill the mice, observe and record the degree of invasion and metastasis of tumor tissues, then the tumor tissues were segregated and weighed. The inhibition ratio (IR) of tumor growth was calculated by the following formula: IR (%)=[(Wc−Wt)/Wc]×100%, where Wc is the average tumor weight of the control group, and Wt is that of the treatment group. Data were expressed as mean±SD and statistical analysis was performed by SPSS Statistics 17.0 using a one-way analysis of variance (ANOVA) followed by unpaired t-test. A value of P<0.05 was considered statistically significant.

In assay [6] the test system is 5637 human urinary bladder cancer cells. As to the kind of experiment: Wound healing (two-dimensional migration) assay, 5637. Type of assay: cell-based. The following applies: 5637, 10.00 μmol/l, 24 h (FIG. 1C). Here is the method: as §3, §4
Another assay has as its system Murine hepatoma H22. Description: Anti-tumor and anti-angiogenesis effects on H22 tumor-bearing mice. Type of assay: in vivo, mouse. The note with it: H22 mice, 1.35 mmol/kg ig once a day 7 d. The text has this:
1) Animals: Kunming mice of clean grade, half male and half female, body weight 20±2 g, were purchased from the experimental animal center of Henan Province, China. Qualified Certificate number: SCXK (Yu) 2005-0001.
2) Cells: Murine hepatoma H22 cells were presently obtained from Henan Academy of Medical and Pharmaceutical Sciences (Zhengzhou, China).
Cyclophosphamide (Cyc) was produced by Tianjin Jingshi Pharmaceutical Co., Ltd., China (approval number of medicine: H12021006). Gelatin and carmine red were supplied by Sigma Chemical (St. Louis, Mo., U.S.A). All other chemicals and reagents were of the highest commercial grade available. All drugs were prepared with normal saline emulsified with Tween-80 (0.1% v/v) and dispersed in carboxymethylcellulose (0.5% v/v). 10% (W/V) carmine solution was prepared with salt solution containing 5% (W/V) gelatin which should be used immediately after preparation. The rest of medicines and reagents and the methods for preparation were the same with that of EXAMPLE 1.
4) Method: The H22 cells after in vivo passage for 7 d were diluted with physiological saline to adjust to a concentration of 1×10^7/mL, injected to the armpit of right forelimb of mice subcutaneously (0.2 ml/mouse), then mice were divided into 10 groups (n=12; 6 male and 6 female per group) randomly. 24 h later each group of mice was administrated intragastrically (ig; 0.2 ml/10 g) once a day continuously for 7 d with vehicle (tumor control group and control group), Cyc (standard control), or compounds at the tested doses. After the last drug administration and a following fasting of 8 h, each mouse was anesthetized with 1% pentobarbital in normal saline solution (80 mg/kg; ip). Mice of control group were injected with 5% gelatin in normal saline solution (40) via the tail vein (1 ml/mouse); whereas mice of other groups were injected replaced by 10% carmine red and 5% gelatin in normal saline solution (40). Mice were killed, then freezed in a refrigerator at −20 for 2 h to solidify. Tumors were segregated, weighed and homogenized with 3 M NaOH solution (10 ml/g tumor). The homogenate supernatant was prepared by being centrifuged for 20 min at 14000 rpm, and the absorbance at 490 nm was assayed using a PowerWaveX Microplate Scanning Spectrophotometer (Bio-tek Instruments, Inc). The carmine red content was calculated based on the standard curve. The vascular index (VI) expressed as milligram of carmine red per gram of tumor tissue. The inhibition ratio (IR) of tumor growth was calculated using the formula: IR (%)=[(Wc−Wt)/Wc]×100%, where Wc is the average tumor weight of the control group, and Wt is that of the drug treatment group. Data were expressed as mean±SD and statistical analysis was performed by SPSS Statistics 17.0 using a one-way analysis of variance (ANOVA) followed by unpaired t-test. A value of P<0.05 was considered statistically significant.

The source of these data is patent US9198894B2, “Uses of 15-benzylidene-14-deoxy-11,12-didehydroandrographolide derivatives in the preparation of antineoplastic drugs” (Zhengzhou University, priority 2010, dated 2015).

Where two headings read alike, the source gives them in different places. Marks after values point to notes of the source that are not given here.

As for `C=C1CCC2C(C)(CO)C(O)CCC2(C)C1C=CC1=CC(=Cc2ccc(F)cc2)OC1=O` (stereo not drawn) [Compound 5], the “Inhibition of colony formation compared with andrographolide” value (“Inhibition … compared with andrographolide” for short) in assay [1], in assay [2] (Hela) and in assay [5] was “remarkably stronger than that of andrographolide” each time. The IC50 worked out at 2270 nM in assay [1], 1470 nM in assay [2] (Hela) and 2070 nM in assay [5]. Moreover, the “Inhibitory effect on two-dimensional migration” value (shortened to “Inhibitory effect”) in assay [3] and in assay [4] was “much stronger than that of other tumor cells” throughout.

Consider `C=C1CC[C@@H]2[C@](C)(CO)[C@H](O)CC[C@@]2(C)[C@@H]1C/C=C1/C(=O)OC[C@H]1O` [Compound 1, Andrographolide], for which the “IR (%) of S180 sarcoma growth” value with S180 murine sarcoma (1.35 mmol/kg ig once a day 9 d) is recorded as 17.18 ± 3.21 %. For the same compound, the “Average invasion and metastasis grade” value in the assay on S180 murine sarcoma (S180, grades 0-4, 1.35 mmol/kg) is 0.67. In addition, the “Mouse Number Grade 0” value with S180 murine sarcoma (S180 invasion, Grade 0: no invasion, 1.35 mmol/kg) came to 6. In the assay on S180 murine sarcoma (S180 invasion, Grade 1: invasion to right forelimb, 1.35 mmol/kg), the “Mouse Number Grade 1” value amounted to 4. In the assay on S180 murine sarcoma (S180 invasion, Grade 2: right forelimb and the left side of body, 1.35 mmol/kg), the “Mouse Number Grade 2” value was found to be 2. For the same compound, the “Mouse Number Grade 3” value in the assay on S180 murine sarcoma (S180 invasion, Grade 3: also the ribs and muscles in chest, 1.35 mmol/kg) was found to be 0. The “Mouse Number Grade 4” value in the assay on S180 murine sarcoma (S180 invasion, Grade 4: invasion into chest or abdominal cavity, 1.35 mmol/kg) is 0. Moreover, the “Inhibitory effect” value in assay [6] and in assay [3] was “stronger inhibition” throughout. In addition, the IC50 was determined as 11300 nM in assay [1] (Homo sapiens); 2910 nM in assay [2] (Homo sapiens, HeLa); 19000 nM in assay [5] (Homo sapiens). The “IR (%) of tumor growth” value in the assay with Murine hepatoma H22 is on record as 31.70* %. The compound further came in with a Carmine contents in the assay on Murine hepatoma H22 (mean ± s) of 4.66 ± 2.58. Besides, the “VI (vascular index, mg carmine red per g tumor tissue)” value in the assay with Murine hepatoma H22 (mean ± s) was 5.10 ± 2.13 mg/g.

For `C=C1CCC2C(C)(CO)C(O)CCC2(C)C1C=CC1=CC(=Cc2ccc(OC)cc2)OC1=O` (stereo not drawn) [Compound 7], the “Inhibitory effect” value in assay [6] and in assay [3] was “stronger inhibition” throughout. The “Inhibition … compared with andrographolide” value in assay [1], in assay [2] (Hela) and in assay [5] was “remarkably stronger than that of andrographolide” each time. Moreover, the IC50 was determined as 3310 nM in assay [1], 2400 nM in assay [2] (Hela) and 2450 nM in assay [5].

For the compound `C=C1CCC2C(C)(CO)C(O)CCC2(C)C1C=CC1=CC(=Cc2ccc(Br)cc2)OC1=O` (stereo not drawn) [Compound 6], the “Inhibition … compared with andrographolide” value in assay [1], in assay [2] (Hela) and in assay [5] was “remarkably stronger than that of andrographolide” throughout. Also, the IC50 in assay [1] was found to be 1670 nM; in assay [2] (Hela), 1980 nM; in assay [5], 2630 nM.

For the compound `C=C1CCC2C(C)(COC(=O)CCC(=O)O)C(OC(=O)CCC(=O)O)CCC2(C)C1C=CC1=CC(=Cc2ccc(Cl)cc2)OC1=O` (stereo not drawn) [Compound 8], the “Inhibitory effect” value in assay [3] and in assay [4] was “much stronger than that of other tumor cells” in each case.
